This is an account of results in ChEMBL document CHEMBL1212699, “Chemical approaches to understanding O-GlcNAc glycosylation in the brain” (Nat Chem Biol, 2008).

This assay in a line: Inhibition of beta-N-acetylglucosaminidase.

`CC(C)C(=O)N[C@H]1c2nc(CCc3ccccc3)cn2[C@H](CO)[C@@H](O)[C@@H]1O` came in with an inhibition constant (Ki) of 4.6 pM.
